Data as given in article PMC7265341, “Quantifying CDK inhibitor selectivity in live cells” (Nature Communications, 2020).
Where two headings read alike, the source gives them in different places.

Experiments:
CDK11A/Cyclin L2 = biological target: T1, CDK11A/Cyclin L2 (Homo sapiens, UniProt Q9UQ88); assay: NanoBRET live-cell target engagement, CDK11A-NanoLuc/Cyclin L2 in HEK-293; type: binding; conditions: CDK11a/L2, 10µM
T1 sequence (Q9UQ88 1-783): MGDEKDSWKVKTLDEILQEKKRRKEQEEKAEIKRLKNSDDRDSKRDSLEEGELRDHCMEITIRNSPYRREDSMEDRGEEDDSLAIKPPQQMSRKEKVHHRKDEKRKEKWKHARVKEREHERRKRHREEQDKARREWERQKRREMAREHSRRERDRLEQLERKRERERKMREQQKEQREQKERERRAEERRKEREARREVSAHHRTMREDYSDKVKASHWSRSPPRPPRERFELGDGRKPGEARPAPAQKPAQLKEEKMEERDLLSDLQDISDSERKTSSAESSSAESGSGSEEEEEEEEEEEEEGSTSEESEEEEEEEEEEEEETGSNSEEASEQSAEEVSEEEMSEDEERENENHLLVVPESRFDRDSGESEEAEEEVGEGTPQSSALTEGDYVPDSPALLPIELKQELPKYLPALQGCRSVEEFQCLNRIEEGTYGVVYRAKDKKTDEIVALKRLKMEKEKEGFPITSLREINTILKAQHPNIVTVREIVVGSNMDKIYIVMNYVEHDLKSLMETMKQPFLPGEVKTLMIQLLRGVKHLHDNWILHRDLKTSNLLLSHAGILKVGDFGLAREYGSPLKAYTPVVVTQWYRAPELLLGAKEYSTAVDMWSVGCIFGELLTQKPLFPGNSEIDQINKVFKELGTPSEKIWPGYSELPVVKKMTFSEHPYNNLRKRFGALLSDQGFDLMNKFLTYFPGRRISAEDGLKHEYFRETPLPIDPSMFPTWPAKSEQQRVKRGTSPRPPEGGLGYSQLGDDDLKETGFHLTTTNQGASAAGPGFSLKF

CDK9/Cyclin K = CDK9/Cyclin K (Homo sapiens, UniProt P50750); assay: NanoBRET live-cell target engagement, NanoLuc-CDK9/Cyclin K in HEK-293; type: binding; conditions: CDK9/K, 10µM
CDK2/Cyclin E1 = CDK2/Cyclin E1 (Homo sapiens, UniProt P24941); assay: NanoBRET live-cell target engagement, CDK2-NanoLuc/Cyclin E1 in HEK-293; type: binding; conditions: CDK2/E1
CDK10/Cyclin L2 = CDK10/Cyclin L2 (Homo sapiens, UniProt Q15131); assay: NanoBRET live-cell target engagement, CDK10-NanoLuc/Cyclin L2 in HEK-293; conditions: CDK10/L2
CDK8/Cyclin C = CDK8/Cyclin C (Homo sapiens, UniProt P49336); assay: NanoBRET live-cell target engagement, NanoLuc-CDK8/Cyclin C in HEK-293; type: binding; conditions: CDK8/C
CDK1/Cyclin E1 = CDK1/Cyclin E1 (Homo sapiens, UniProt P06493); assay: NanoBRET live-cell target engagement, CDK1-NanoLuc/Cyclin E1 in HEK-293; type: binding
CDK12/Cyclin K = CDK12/Cyclin K (Homo sapiens, UniProt Q9NYV4); assay: NanoBRET live-cell target engagement, CDK12-NanoLuc/Cyclin K in HEK-293; type: binding; conditions: CDK12/K, 10µM
CDK20/Cyclin H = CDK20/Cyclin H (Homo sapiens, UniProt Q8IZL9); assay: NanoBRET live-cell target engagement, NanoLuc-CDK20/Cyclin H in HEK-293; type: binding; conditions: CDK20/H; 10µM
CDK5/CDK5R1 = CDK5/CDK5R1 (Homo sapiens, UniProt Q00535); assay: NanoBRET live-cell target engagement, CDK5-NanoLuc/CDK5R1 in HEK-293; type: binding; conditions: CDK5/CDK5R1
CDK11B/Cyclin L2 = CDK11B/Cyclin L2 (Homo sapiens, UniProt P21127); assay: NanoBRET live-cell target engagement, CDK11B-NanoLuc/Cyclin L2 in HEK-293; type: binding; conditions: CDK11b/L2, 10µM
CDK6/Cyclin D1 = CDK6/Cyclin D1 (Homo sapiens, UniProt Q00534); assay: NanoBRET live-cell target engagement, NanoLuc-CDK6/Cyclin D1 in HEK-293; type: binding; conditions: CDK6/D1
CDK3/Cyclin E1 = CDK3/Cyclin E1 (Homo sapiens, UniProt Q00526); assay: NanoBRET live-cell target engagement, CDK3-NanoLuc/Cyclin E1 in HEK-293; type: binding; conditions: CDK3/E1
CDK13/Cyclin K = CDK13/Cyclin K (Homo sapiens, UniProt Q14004); assay: NanoBRET live-cell target engagement, CDK13-NanoLuc/Cyclin K in HEK-293; type: binding; conditions: CDK13/K, 10µM
CDK16/Cyclin Y = CDK16/Cyclin Y (Homo sapiens, UniProt Q00536); assay: NanoBRET live-cell target engagement, CDK16-NanoLuc/Cyclin Y in HEK-293; type: binding; conditions: CDK16/Y
CDK15/Cyclin Y = CDK15/Cyclin Y (Homo sapiens, UniProt Q96Q40); assay: NanoBRET live-cell target engagement, NanoLuc-CDK15/Cyclin Y in HEK-293; type: binding; conditions: CDK15/Y
CDK18/Cyclin Y = CDK18/Cyclin Y (Homo sapiens, UniProt Q07002); assay: NanoBRET live-cell target engagement, CDK18-NanoLuc/Cyclin Y in HEK-293; type: binding; conditions: CDK18/Y
CDK4/Cyclin D1 = CDK4/Cyclin D1 (Homo sapiens, UniProt P11802); assay: NanoBRET live-cell target engagement, NanoLuc-CDK4/Cyclin D1 in HEK-293; type: binding; conditions: CDK4/D1
CDK17/Cyclin Y = CDK17/Cyclin Y (Homo sapiens, UniProt Q00537); assay: NanoBRET live-cell target engagement, CDK17-NanoLuc/Cyclin Y in HEK-293; type: binding; conditions: CDK17/Y
CDK19/Cyclin C = CDK19/Cyclin C (Homo sapiens, UniProt Q9BWU1); assay: NanoBRET live-cell target engagement, NanoLuc-CDK19/Cyclin C in HEK-293
[1] = n=3 average ± SEM, n=2 average to 2 significant figures, read-out: IC50 (nM) Average*
[2] = read-out: IC50 (nM) Replicate 1
[3] = read-out: IC50 (nM) Replicate 2

Chain of CDK13/Cyclin K (O75909 whole entry): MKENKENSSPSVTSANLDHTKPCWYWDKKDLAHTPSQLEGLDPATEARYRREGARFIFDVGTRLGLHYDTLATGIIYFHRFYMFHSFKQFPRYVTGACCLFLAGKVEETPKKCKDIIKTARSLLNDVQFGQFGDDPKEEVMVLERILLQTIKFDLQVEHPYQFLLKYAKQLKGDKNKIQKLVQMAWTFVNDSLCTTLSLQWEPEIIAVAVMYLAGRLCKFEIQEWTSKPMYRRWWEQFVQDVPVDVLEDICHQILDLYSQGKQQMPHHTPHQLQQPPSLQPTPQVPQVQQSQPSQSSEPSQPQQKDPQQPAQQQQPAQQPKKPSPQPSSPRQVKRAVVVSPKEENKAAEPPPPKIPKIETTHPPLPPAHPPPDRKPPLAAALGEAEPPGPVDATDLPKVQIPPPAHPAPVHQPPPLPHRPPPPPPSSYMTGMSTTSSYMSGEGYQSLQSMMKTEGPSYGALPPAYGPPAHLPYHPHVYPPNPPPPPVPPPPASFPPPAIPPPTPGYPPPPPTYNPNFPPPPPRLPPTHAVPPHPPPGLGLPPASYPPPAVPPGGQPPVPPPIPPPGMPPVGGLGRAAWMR
Chain of CDK13/Cyclin K (Q14004 other isoform, or with tags, fused parts or gaps): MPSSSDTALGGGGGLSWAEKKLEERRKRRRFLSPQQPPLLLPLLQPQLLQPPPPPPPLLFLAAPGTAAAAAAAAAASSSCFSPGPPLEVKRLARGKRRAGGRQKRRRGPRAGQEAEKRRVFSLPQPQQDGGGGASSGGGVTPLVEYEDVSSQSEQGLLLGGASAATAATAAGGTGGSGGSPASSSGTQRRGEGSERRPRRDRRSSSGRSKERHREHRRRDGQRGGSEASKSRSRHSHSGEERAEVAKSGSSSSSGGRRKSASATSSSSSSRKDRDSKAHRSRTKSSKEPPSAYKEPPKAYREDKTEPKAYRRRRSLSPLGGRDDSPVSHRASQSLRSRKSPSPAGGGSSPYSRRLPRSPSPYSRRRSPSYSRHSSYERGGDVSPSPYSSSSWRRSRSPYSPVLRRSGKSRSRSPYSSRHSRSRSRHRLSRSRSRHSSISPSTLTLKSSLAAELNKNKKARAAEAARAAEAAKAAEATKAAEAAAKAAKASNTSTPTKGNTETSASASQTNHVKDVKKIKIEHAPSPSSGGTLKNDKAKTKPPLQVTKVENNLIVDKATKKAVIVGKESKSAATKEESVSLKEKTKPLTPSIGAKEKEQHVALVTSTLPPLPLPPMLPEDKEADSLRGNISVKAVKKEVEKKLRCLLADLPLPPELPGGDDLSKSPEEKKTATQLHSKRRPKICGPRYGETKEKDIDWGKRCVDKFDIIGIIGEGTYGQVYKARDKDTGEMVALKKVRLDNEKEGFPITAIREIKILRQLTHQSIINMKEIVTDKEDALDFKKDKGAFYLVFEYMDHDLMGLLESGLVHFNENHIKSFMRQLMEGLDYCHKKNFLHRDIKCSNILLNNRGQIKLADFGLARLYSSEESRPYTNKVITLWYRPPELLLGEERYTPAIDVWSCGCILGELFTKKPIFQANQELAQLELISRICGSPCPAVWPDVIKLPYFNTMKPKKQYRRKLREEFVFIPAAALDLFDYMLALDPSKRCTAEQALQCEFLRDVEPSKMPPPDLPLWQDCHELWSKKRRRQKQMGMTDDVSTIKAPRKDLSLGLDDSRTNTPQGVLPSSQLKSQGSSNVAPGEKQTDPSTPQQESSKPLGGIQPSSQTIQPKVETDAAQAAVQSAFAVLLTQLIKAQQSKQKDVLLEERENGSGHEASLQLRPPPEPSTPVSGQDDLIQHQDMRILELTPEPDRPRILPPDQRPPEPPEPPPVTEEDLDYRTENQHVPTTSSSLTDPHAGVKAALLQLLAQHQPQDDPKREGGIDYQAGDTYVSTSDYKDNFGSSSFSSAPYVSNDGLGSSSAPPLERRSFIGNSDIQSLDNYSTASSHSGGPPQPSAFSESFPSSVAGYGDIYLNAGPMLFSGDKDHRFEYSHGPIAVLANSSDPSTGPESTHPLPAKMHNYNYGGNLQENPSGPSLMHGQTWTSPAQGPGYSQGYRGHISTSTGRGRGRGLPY
Chain of CDK6/Cyclin D1 (Q00534 whole entry): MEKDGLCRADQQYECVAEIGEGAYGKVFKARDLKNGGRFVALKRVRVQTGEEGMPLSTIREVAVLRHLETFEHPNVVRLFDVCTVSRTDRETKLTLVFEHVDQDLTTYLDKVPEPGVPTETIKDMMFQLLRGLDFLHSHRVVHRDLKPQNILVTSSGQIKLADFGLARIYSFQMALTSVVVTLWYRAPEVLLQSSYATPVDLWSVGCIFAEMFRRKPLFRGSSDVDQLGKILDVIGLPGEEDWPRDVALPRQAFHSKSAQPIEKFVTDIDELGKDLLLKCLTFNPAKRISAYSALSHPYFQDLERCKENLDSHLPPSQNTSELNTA
Chain of CDK6/Cyclin D1 (P24385 whole entry partner): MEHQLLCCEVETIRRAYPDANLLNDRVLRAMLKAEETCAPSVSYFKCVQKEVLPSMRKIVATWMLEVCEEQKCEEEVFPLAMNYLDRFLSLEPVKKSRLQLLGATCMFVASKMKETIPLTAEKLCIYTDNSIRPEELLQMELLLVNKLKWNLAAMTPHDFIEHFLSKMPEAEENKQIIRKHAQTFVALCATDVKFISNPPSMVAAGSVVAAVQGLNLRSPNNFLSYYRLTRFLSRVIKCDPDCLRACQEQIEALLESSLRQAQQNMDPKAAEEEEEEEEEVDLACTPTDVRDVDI
Chain of CDK8/Cyclin C (P49336 whole entry): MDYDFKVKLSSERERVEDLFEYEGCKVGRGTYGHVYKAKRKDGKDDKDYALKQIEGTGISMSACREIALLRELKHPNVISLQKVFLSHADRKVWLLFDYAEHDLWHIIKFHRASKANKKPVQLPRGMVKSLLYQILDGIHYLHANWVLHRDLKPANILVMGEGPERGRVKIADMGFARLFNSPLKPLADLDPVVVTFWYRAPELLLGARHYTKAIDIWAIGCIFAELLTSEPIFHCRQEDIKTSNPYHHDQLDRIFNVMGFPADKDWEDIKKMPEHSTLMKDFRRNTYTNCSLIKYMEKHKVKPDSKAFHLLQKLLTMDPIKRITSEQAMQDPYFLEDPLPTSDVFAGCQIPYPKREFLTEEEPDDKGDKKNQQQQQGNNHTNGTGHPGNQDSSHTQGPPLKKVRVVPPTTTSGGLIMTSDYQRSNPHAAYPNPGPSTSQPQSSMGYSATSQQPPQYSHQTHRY
Chain of CDK8/Cyclin C (P24863 whole entry partner): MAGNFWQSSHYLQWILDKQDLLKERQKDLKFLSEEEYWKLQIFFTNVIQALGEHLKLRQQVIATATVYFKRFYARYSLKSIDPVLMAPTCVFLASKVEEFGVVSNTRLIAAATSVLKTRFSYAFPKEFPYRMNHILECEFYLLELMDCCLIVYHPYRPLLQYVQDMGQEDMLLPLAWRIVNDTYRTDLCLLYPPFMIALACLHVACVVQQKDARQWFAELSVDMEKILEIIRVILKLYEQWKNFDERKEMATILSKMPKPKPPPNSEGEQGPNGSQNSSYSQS
Chain of CDK1/Cyclin E1 (P06493 whole entry): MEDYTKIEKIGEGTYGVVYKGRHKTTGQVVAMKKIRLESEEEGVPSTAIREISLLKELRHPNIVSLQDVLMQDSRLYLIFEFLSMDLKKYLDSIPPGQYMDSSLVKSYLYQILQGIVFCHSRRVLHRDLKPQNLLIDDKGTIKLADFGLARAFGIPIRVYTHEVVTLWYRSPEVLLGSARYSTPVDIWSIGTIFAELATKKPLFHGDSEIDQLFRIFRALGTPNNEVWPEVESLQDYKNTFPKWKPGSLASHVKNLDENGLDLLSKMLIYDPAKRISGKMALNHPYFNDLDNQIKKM
Chain of CDK1/Cyclin E1 (P24864 whole entry partner): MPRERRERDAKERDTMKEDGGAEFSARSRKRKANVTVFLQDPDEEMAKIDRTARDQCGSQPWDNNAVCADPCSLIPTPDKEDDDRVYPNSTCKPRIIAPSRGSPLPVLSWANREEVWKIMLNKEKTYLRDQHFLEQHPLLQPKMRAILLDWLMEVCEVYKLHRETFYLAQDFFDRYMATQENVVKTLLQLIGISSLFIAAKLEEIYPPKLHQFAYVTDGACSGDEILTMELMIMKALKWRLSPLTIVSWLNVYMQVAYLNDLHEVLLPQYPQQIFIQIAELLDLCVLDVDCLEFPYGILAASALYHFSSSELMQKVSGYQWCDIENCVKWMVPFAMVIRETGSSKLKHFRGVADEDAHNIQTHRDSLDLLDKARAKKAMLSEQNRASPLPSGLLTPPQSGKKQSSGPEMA
Chain of CDK11B/Cyclin L2 (P21127 1-782 isoform P21127-2): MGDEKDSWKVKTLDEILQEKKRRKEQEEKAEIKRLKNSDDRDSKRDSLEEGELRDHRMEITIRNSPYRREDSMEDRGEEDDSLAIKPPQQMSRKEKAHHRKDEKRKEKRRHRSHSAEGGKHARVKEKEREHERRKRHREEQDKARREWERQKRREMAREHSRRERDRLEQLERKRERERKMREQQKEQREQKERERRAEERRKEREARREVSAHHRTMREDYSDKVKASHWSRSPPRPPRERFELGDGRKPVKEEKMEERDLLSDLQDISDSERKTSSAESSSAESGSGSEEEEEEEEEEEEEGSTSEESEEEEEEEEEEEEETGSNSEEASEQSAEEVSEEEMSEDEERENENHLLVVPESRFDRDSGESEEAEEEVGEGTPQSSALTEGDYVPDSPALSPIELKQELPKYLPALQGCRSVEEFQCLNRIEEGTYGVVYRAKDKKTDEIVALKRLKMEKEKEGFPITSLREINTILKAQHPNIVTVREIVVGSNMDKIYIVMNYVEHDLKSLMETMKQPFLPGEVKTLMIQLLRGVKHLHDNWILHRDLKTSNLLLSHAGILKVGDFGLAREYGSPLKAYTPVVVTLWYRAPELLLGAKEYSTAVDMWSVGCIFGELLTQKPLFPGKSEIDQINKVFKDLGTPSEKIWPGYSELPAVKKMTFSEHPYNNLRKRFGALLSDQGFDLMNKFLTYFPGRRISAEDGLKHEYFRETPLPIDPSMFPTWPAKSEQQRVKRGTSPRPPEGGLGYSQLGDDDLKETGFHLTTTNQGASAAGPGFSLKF

Q: Which results are given for CNC1CCN(C(=O)c2ccc(Nc3ncc(F)c(-c4cnc(C)n4C(C)C)n3)cc2)C1 (centres unmarked) [AZD5597]?
A: Inhibition at 10µM (%) Replicate 1 (CDK11A/Cyclin L2): 89.7%; Inhibition at 10µM (%) Replicate 2 (CDK11A/Cyclin L2): 90.1%; Inhibition at 10µM (%) Average (CDK11A/Cyclin L2; average of replicates): 89.9%; Inhibition at 10µM (%) Replicate 1 (CDK9/Cyclin K): 98.2%; Inhibition at 10µM (%) Replicate 2 (CDK9/Cyclin K): 100.7%; Inhibition at 10µM (%) Average (CDK9/Cyclin K; average of replicates): 99.5%; Inhibition at 10µM (%) Replicate 1 (CDK2/Cyclin E1; 10µM): 99.9%; Inhibition at 10µM (%) Replicate 2 (CDK2/Cyclin E1; 10µM): 99.7%; Inhibition at 10µM (%) Average (CDK2/Cyclin E1; 10µM, average of replicates): 99.8%; IC50 (CDK2/Cyclin E1; [1]): 6.6 nM; IC50 (CDK2/Cyclin E1; [2]): 6.7 nM; IC50 (CDK2/Cyclin E1; [3]): 6.4 nM; Inhibition at 10µM (%) Replicate 1 (CDK10/Cyclin L2; 10µM): 85.6%; Inhibition at 10µM (%) Replicate 2 (CDK10/Cyclin L2; 10µM): 87.4%; Inhibition at 10µM (%) Average (CDK10/Cyclin L2; 10µM, average of replicates): 86.5%; IC50 (CDK10/Cyclin L2; read-out: IC50 (nM) Average*, n=3 average ± SEM, n=2 average to 2 significant figures): 520 nM; IC50 (CDK10/Cyclin L2; [2]): 450 nM; IC50 (CDK10/Cyclin L2; [3]): 580 nM; Inhibition at 10µM (%) Replicate 1 (CDK8/Cyclin C; 10µM): 91.3%; Inhibition at 10µM (%) Replicate 2 (CDK8/Cyclin C; 10µM): 98.8%; Inhibition at 10µM (%) Average (CDK8/Cyclin C; 10µM, average of replicates): 95.1%; IC50 (CDK8/Cyclin C; [1]): 370 nM; IC50 (CDK8/Cyclin C; [2]): 434 nM; IC50 (CDK8/Cyclin C; [3]): 297 nM; Inhibition at 10µM (%) Replicate 1 (CDK1/Cyclin E1; CDK1/E1, 10µM): 93.8%; Inhibition at 10µM (%) Replicate 2 (CDK1/Cyclin E1; CDK1/E1, 10µM): 95.4%; Inhibition at 10µM (%) Average (CDK1/Cyclin E1; CDK1/E1, 10µM, average of replicates): 94.6%; IC50 (CDK1/Cyclin E1; CDK1/E1, n=3 average ± SEM, n=2 average to 2 significant figures, read-out: IC50 (nM) Average*): 9 nM; IC50 (CDK1/Cyclin E1; CDK1/E1, read-out: IC50 (nM) Replicate 1): 9 nM; IC50 (CDK1/Cyclin E1; CDK1/E1, read-out: IC50 (nM) Replicate 2): 9 nM; IC50 (CDK1/Cyclin E1; live HEK-293, 2 h, mean ± S.E.M. (n=3) or mean (n=2), read-out: IC50 for CDK/cyclin complexes, CDK1/E1): 9 nM; Inhibition at 10µM (%) Replicate 1 (CDK12/Cyclin K): 44.4%; Inhibition at 10µM (%) Replicate 2 (CDK12/Cyclin K): 42.5%; Inhibition at 10µM (%) Average (CDK12/Cyclin K; average of replicates): 43.5%; Inhibition at 10µM (%) Replicate 1 (CDK20/Cyclin H): 68.9%; Inhibition at 10µM (%) Replicate 2 (CDK20/Cyclin H): 74.8%; Inhibition at 10µM (%) Replicate 1 (CDK5/CDK5R1; 10µM): 90.7%; Inhibition at 10µM (%) Replicate 2 (CDK5/CDK5R1; 10µM): 97.1%; Inhibition at 10µM (%) Average (CDK5/CDK5R1; 10µM, average of replicates): 93.9%; IC50 (CDK5/CDK5R1; [1]): 10 nM; IC50 (CDK5/CDK5R1; [2]): 8.2 nM; IC50 (CDK5/CDK5R1; [3]): 12 nM; Inhibition at 10µM (%) Replicate 1 (CDK11B/Cyclin L2): 88.8%; Inhibition at 10µM (%) Replicate 2 (CDK11B/Cyclin L2): 88.6%; Inhibition at 10µM (%) Average (CDK11B/Cyclin L2; average of replicates): 88.7%; Inhibition at 10µM (%) Replicate 1 (CDK6/Cyclin D1; 10µM): 99.7%; Inhibition at 10µM (%) Replicate 2 (CDK6/Cyclin D1; 10µM): 100.6%; Inhibition at 10µM (%) Average (CDK6/Cyclin D1; 10µM, average of replicates): 100.1%; IC50 (CDK6/Cyclin D1; [1]): 8.3 nM; IC50 (CDK6/Cyclin D1; [2]): 10 nM; IC50 (CDK6/Cyclin D1; [3]): 6.5 nM; Inhibition at 10µM (%) Replicate 1 (CDK3/Cyclin E1; 10µM): 99.1%; Inhibition at 10µM (%) Replicate 2 (CDK3/Cyclin E1; 10µM): 98.8%; Inhibition at 10µM (%) Average (CDK3/Cyclin E1; 10µM, average of replicates): 98.9%; IC50 (CDK3/Cyclin E1; [1]): 3.4 nM; IC50 (CDK3/Cyclin E1; [2]): 1.6 nM; IC50 (CDK3/Cyclin E1; [3]): 5.2 nM; Inhibition at 10µM (%) Replicate 1 (CDK13/Cyclin K): 42.5%; Inhibition at 10µM (%) Replicate 2 (CDK13/Cyclin K): 57.5%; Inhibition at 10µM (%) Average (CDK13/Cyclin K; average of replicates): 50.0%; Inhibition at 10µM (%) Replicate 1 (CDK16/Cyclin Y; 10µM): 88.2%; Inhibition at 10µM (%) Replicate 2 (CDK16/Cyclin Y; 10µM): 91.4%; IC50 (CDK16/Cyclin Y; [1]): 13 nM; IC50 (CDK16/Cyclin Y; [2]): 8.9 nM; IC50 (CDK16/Cyclin Y; [3]): 18 nM; Inhibition at 10µM (%) Replicate 1 (CDK15/Cyclin Y; 10µM): 93.9%; Inhibition at 10µM (%) Replicate 2 (CDK15/Cyclin Y; 10µM): 95.6%; Inhibition at 10µM (%) Average (CDK15/Cyclin Y; 10µM, average of replicates): 94.7%; IC50 (CDK15/Cyclin Y; [1]): 300 nM; IC50 (CDK15/Cyclin Y; [2]): 250 nM; IC50 (CDK15/Cyclin Y; [3]): 350 nM; Inhibition at 10µM (%) Replicate 1 (CDK18/Cyclin Y; 10µM): 94.0%; Inhibition at 10µM (%) Replicate 2 (CDK18/Cyclin Y; 10µM): 101.0%; Inhibition at 10µM (%) Average (CDK18/Cyclin Y; 10µM, average of replicates): 97.5%; IC50 (CDK18/Cyclin Y; [1]): 130 nM; IC50 (CDK18/Cyclin Y; [2]): 86 nM; IC50 (CDK18/Cyclin Y; [3]): 174 nM; Inhibition at 10µM (%) Replicate 1 (CDK4/Cyclin D1; 10µM): 101.0%; Inhibition at 10µM (%) Replicate 2 (CDK4/Cyclin D1; 10µM): 98.2%; Inhibition at 10µM (%) Average (CDK4/Cyclin D1; 10µM, average of replicates): 99.6%; IC50 (CDK4/Cyclin D1; [1]): 7 nM; IC50 (CDK4/Cyclin D1; [2]): 7.4 nM; IC50 (CDK4/Cyclin D1; [3]): 6.6 nM; Inhibition at 10µM (%) Replicate 1 (CDK17/Cyclin Y; 10µM): 90.9%; Inhibition at 10µM (%) Replicate 2 (CDK17/Cyclin Y; 10µM): 91.8%; Inhibition at 10µM (%) Average (CDK17/Cyclin Y; 10µM, average of replicates): 91.3%; IC50 (CDK17/Cyclin Y; [1]): 10 nM; IC50 (CDK17/Cyclin Y; [2]): 6.5 nM; IC50 (CDK17/Cyclin Y; [3]): 13 nM; Inhibition at 10µM (%) Replicate 1 (CDK19/Cyclin C; CDK19/C, 10µM): 88.7%; Inhibition at 10µM (%) Replicate 2 (CDK19/Cyclin C; CDK19/C, 10µM): 89.0%; Inhibition at 10µM (%) Average (CDK19/Cyclin C; CDK19/C, 10µM, average of replicates): 88.9%; IC50 (CDK19/Cyclin C; read-out: IC50 (nM) Average*, CDK19/Y, n=3 average ± SEM, n=2 average to 2 significant figures): 240 nM; IC50 (CDK19/Cyclin C; read-out: IC50 (nM) Replicate 1, CDK19/C): 354 nM; IC50 (CDK19/Cyclin C; read-out: IC50 (nM) Replicate 2, CDK19/C): 119 nM
